Measured values published in US20050129772A1, “Compositions comprising an HIV protease inhibitor” (Agouron Pharmaceuticals, Inc., priority 2003, published 2005).
“And” between values parts separate entries of the source, which are not always exact repeats. Identical values can stand only once.

Key:
[1] = in vitro dissolution test in PBS at pH 6.5 and 290 mOsm/kg, 37° C.; format: physicochemical; design: AUC: concentration or dose not given beside the values; conditions: for AUC90 (area under the concentration-versus-time curve during the initial ninety minutes) / AUC1200 / C1200 (Compound A concentration at 1200 minutes) / MDC90 (maximum concentration of drug during the initial ninety minutes): dose 3000 μg/mL; for Compound A Concentration: 3000 μg/mL if all dissolved
Experimental: An in vitro dissolution test was performed to determine whether the amorphous Compound A of Example 1 provides concentration-enhancement relative to the crystalline form of Compound A. For this test, a sufficient amount of material was added to a microcentrifuge test tube so that the concentration of Compound A would have been 3000 μg/mL, if all of Compound A had dissolved. The test was run in duplicate. The tubes were placed in a 37° C. temperature-controlled chamber, and 1.8 mL PBS at pH 6.5 and 290 mOsm/kg was added to each respective tube. The samples were quickly mixed using a vortex mixer for about 60 seconds. The samples were centrifuged at 13,000 G at 37° C. for 1 minute. The resulting supernatant solution was then sampled and diluted 1:6 (by volume) with methanol and then analyzed by high-performance liquid chromatography (HPLC). HPLC analysis was performed using a Phenomenex Luna C18 column. The mobile phase consisted of 55% 20 mM KH2PO4, adjusted to pH 3 with H3PO4, and 45% acetonitrile. UV absorbance was measured at 210 nm. The contents of each tube were mixed on the vortex mixer and allowed to stand undisturbed at 37° C. until the next sample was taken. Samples were collected at 4, 10, 20, 40, 90 and 1200 minutes. Control 1 consisted of crystalline Form I of Compound A alone, and a sufficient amount of material was added so that the concentration of Compound A would have been 3000 μg/mL, if all of Compound A had dissolved. The concentrations of drug obtained in these samples were used to determine the maximum concentration of drug (“MDC90”), the area under the concentration-versus-time curve (“AUC90”) during the initial ninety minutes, and the Compound A concentration at 1200 minutes (“[…]”). Example 2 was prepared by combining amorphous Compound A and a concentration-enhancing polymer. A simple physical mixture of Compound A and the concentration-enhancing polymer hydroxypropyl methyl cellulose acetate succinate (AQUOT-MG, available from Shin Etsu, Tokyo, Japan) was prepared by adding 5.4 mg of amorphous Compound A prepared as in Example 1 and 0.6 mg of HPMCAS to a centrifuge tube. The dry powders were mixed using a vortex mixer for 1 minute. Dissolution tests were performed as described in Example 1. […] For these tests, a sufficient amount of material was added so that the concentration of Compound A would have been 3000 μg/mL, if all of Compound A had dissolved. […] Examples 37A, 37B and 37C were prepared as in Example 2, but with the following exceptions: Example 37A was 5.4 mg Compound A and 0.6 mg HPMCAS; Example 37B was 5.4 mg Compound A and 0.167 mg HPMCAS; and Example 37C was 5.4 mg Compound A and 0.055 mg HPMCAS. Example 37D consisted of amorphous Compound A alone. MDC360 is the maximum dissolved drug concentration within the first 360 minutes, and AUC360 is the area under the dissolved drug concentration versus time curve at 360 minutes.

[2] = oral dosing to fasted beagle dogs, plasma drug concentration; format: in vivo; conditions: 25 mgA/kg; for AUC0-Tlast: oral gavage suspension in 0.5 wt % Methocel, plasma
Experimental: The area under the concentration-versus-time curve (“AUCO-Tlast”, ng*hr/mL), from the time the dose was administered to the last sample, is shown in Table 17. Crystalline Form I of Compound A (Control 1) and amorphous Compound A (Example 1) were tested using a similar protocol. The dose was administered to dogs as a suspension in a solution containing 0.5 wt % Methocel® (HPMC, USP grade, 4000 cps, Dow Chemical Co.). Oral administration of the aqueous drug suspensions was facilitated using an oral gavage equipped with a polyethylene tube insert. The polyethylene tube insert was used to accurately deliver the desired volume of dose by displacement, without the need for additional volume of water to rinse the tube. The dose was 25 mgA/kg (“mgA” refers to mg of active drug).

[3] = aqueous solubility of crystalline Compound A; format: physicochemical; conditions: 26° C.
Source text: The compound (4R)—N-allyl-3-{(2S,3S)-2-hydroxy-3-[(3-hydroxy-2-methylbenzoyl)amino]-4-phenylbutanoyl}-5,5-dimethyl-1,3-thiazolidine-4-carboxamide (also called “(R)-3-((2S,3S)-2-hydroxy-3-{[1-(3-hydroxy-2-methyl-phenyl)-methanoyl]-amino}-4-phenyl-butanoyl)-5,5-dimethyl-thiazolidine-4-carboxylic acid allylamide,” “(4R)-3-[(2S,3S)-2-hydroxy-3-(3-hydroxy-2-methyl-benzoylamino)-4-phenyl-butyryl]-5,5-dimethyl-thiazolidine-4-carboxylic acid allylamide,” or “4-thiazolidinecarboxamide, 3-[(2S,3S)-2-hydroxy-3-[(3-hydroxy-2-methylbenzoyl)amino]-1-oxo-4-phenylbutyl]-5,5-dimethyl-N-2-propenyl-, (4R)-,” and hereinafter referred to as “Compound A”) is an inhibitor of the HIV protease enzyme that may be used for the treatment of HIV-infected mammals, such as humans. Compound A and its preparation are disclosed in U.S. patent application Ser. Nos. 10/166,979 filed Jun. 11, 2002; 60/527,477, filed Dec. 4, 2003, and, 10/782,602, filed Dec. 4, 2003, all of which incorporated herein by reference for this purpose. […] This low aqueous solubility, combined with a low in vivo permeability, result in low oral bioavailability for crystalline Compound A.

[4] = PBS pH 6.5, 37° C., listed as Ex 1
[5] = time 10 min, PBS pH 6.5, 37° C.
[6] = time 20 min, PBS pH 6.5, 37° C.
[7] = time 40 min, PBS pH 6.5, 37° C.
[8] = time 90 min, PBS pH 6.5, 37° C.
[9] = time 1200 min, PBS pH 6.5, 37° C.

Compound | AUC90 (area under the concentration-versus-time curve during the initial ninety minutes) ([1]; PBS pH 6.5, 37° C.) | AUC1200 ([1]; PBS pH 6.5, 37° C.) | C1200 (Compound A concentration at 1200 minutes) ([1]; PBS pH 6.5, 37° C.) [µg/mL] | MDC90 (maximum concentration of drug during the initial ninety minutes) ([1]; PBS pH 6.5, 37° C.) | AUC ([1]; time 0 min, PBS pH 6.5, 37° C.) [µg·min/mL] | Compound A Concentration ([1]; time 0 min, PBS pH 6.5, 37° C.) [µg/mL] | AUC ([1]; time 4 min, PBS pH 6.5, 37° C.) [µg·min/mL] | Compound A Concentration ([1]; time 4 min, PBS pH 6.5, 37° C.) [µg/mL] | AUC [1, 5] [µg·min/mL] | Compound A Concentration [1, 5] [µg/mL] | AUC [1, 6] | Compound A Concentration [1, 6] [µg/mL] | AUC [1, 7] | Compound A Concentration [1, 7] [µg/mL] | AUC [1, 8] | Compound A Concentration [1, 8] [µg/mL] | AUC [1, 9] | Compound A Concentration [1, 9] [µg/mL] | AUC0-Tlast [2] [ng·h/mL] | further results
C=CCNC(=O)[C@H]1N(C(=O)[C@@H](O)[C@H](Cc2ccccc2)NC(=O)c2cccc(O)c2C)CSC1(C)C [Example 1, (4R)—N-allyl-3-{(2S,3S)-2-hydroxy-3-[(3-hydroxy-2-methylbenzoyl)amino]-4-phenylbutanoyl}-5,5-dimethyl-1,3-thiazolidine-4-carboxamide] | 75,900 min * μg/mL | 233,000 min*μg/mL | 126 | 1153 µg/mL and 1150 µg/mL | 0 | 0 | 2100 | 1070 | 8800 | 1140 | 20,200 min * μg/mL | 1150 | 43,200 min * μg/mL | 1150 | 75,900 min * μg/mL | 158 | 233,200 min * μg/mL | 126 | 3500 | AUC90 relative to crystalline Form I of Compound A ([1]; PBS pH 6.5, 37° C.): 8.3 fold; MDC relative to crystalline Form I of Compound A ([1]; PBS pH 6.5, 37° C.): 10.3 fold; AUC90 (area under the concentration-versus-time curve during the initial ninety minutes) [1, 4]: 75,900 min * μg/mL; C1200 (Compound A concentration at 1200 minutes) [1, 4]: 126 µg/mL; MDC90 (maximum concentration of drug during the initial ninety minutes) [1, 4]: 1150 µg/mL; relative bioavailability (AUC of test composition divided by AUC of crystalline Form I of Compound A alone) ([2]; oral): 11.7 fold
C=CCNC(=O)[C@H]1N(C(=O)[C@@H](O)[C@H](Cc2ccccc2)NC(=O)c2cccc(O)c2C)CSC1(C)C [Example 37D, (4R)—N-allyl-3-{(2S,3S)-2-hydroxy-3-[(3-hydroxy-2-methylbenzoyl)amino]-4-phenylbutanoyl}-5,5-dimethyl-1,3-thiazolidine-4-carboxamide] |  |  |  |  |  |  |  |  |  |  |  |  |  |  |  |  |  |  |  | AUC360 (area under the dissolved drug concentration versus time curve at 360 minutes) ([1]; dissolution as in Example 2): 180,000 min*μg/ml; MDC360 (maximum dissolved drug concentration within the first 360 minutes) ([1]; dissolution as in Example 2): 1190 µg/mL; C1200 ([1]; dissolution as in Example 2 (Example 37 series)): 140 µg/mL
C=CCNC(=O)[C@H]1N(C(=O)[C@@H](O)[C@H](Cc2ccccc2)NC(=O)c2cccc(O)c2C)CSC1(C)C [Compound A, (4R)—N-allyl-3-{(2S,3S)-2-hydroxy-3-[(3-hydroxy-2-methylbenzoyl)amino]-4-phenylbutanoyl}-5,5-dimethyl-1,3-thiazolidine-4-carboxamide] |  |  |  |  |  |  |  |  |  |  |  |  |  |  |  |  |  |  |  | aqueous solubility ([3]; 0.1 N HCl (pH 1.2)): about 0.16 mgA/mL; aqueous solubility ([3]; normal saline (pH 8.2)): ~0.14 mgA/mL; aqueous solubility ([3]; unbuffered water (pH 8.3)): about 0.16 mgA/mL
C=CCNC(=O)[C@H]1N(C(=O)[C@@H](O)[C@H](Cc2ccccc2)NC(=O)c2cccc(O)c2C)CSC1(C)C [Control 1, (4R)—N-allyl-3-{(2S,3S)-2-hydroxy-3-[(3-hydroxy-2-methylbenzoyl)amino]-4-phenylbutanoyl}-5,5-dimethyl-1,3-thiazolidine-4-carboxamide] | 9200 µg·min/mL | 132,000 min*μg/mL | 109 | 112 µg/mL | 0 | 0 | 200 | 100 | 800 | 100 | 1800 µg·min/mL | 106 | 3900 µg·min/mL | 101 | 9200 µg·min/mL | 112 | 131,700 min * μg/mL | 109 | 300 | 
